The values below are quoted from earlier work in patent publication US10736937B2 (priority 2014, dated 2020).

For this data set, the system named is Streptococcus pneumoniae. The settings on record: mucosal administration; co-administrated with the pathogen or 2 to 24 h before bacterial challenge.

For flagellin, the “protection against Streptococcus pneumoniae lung infection” value is reported as “protect”.
